Test [1] concerns LPS-stimulated cytokine production (IL-1beta and/or TNFalpha). The experiment in a line: LPS-Stimulated Cytokine Production in Human Whole Blood. The test is classed as cell-based. Particulars: 50 ng/ml LPS, 4 hour incubation, IL-1beta and/or TNFalpha by ELISA.
Description: Assay: Test compound concentrations were prepared at 10× concentrations and LPS prepared at 1 ug/ml (final conc. of 50 ng/ml LPS) and added in 50 uL volumes to 1.5 mL eppendorf tubes. Heparinized human whole blood was obtained from healthy volunteers and was dispensed into eppendorf tubes or multiwell plates containing compounds and LPS in 0.2-0.4 mL volumes and the tubes incubated at 37 C. In some studies, compound was incubated with blood for up to 30 min prior to addition of LPS. Following a 4 hour incubation, the tubes or plates were centrifuged to remove cells and plasma was withdrawn and frozen at −80 C. Cytokine measurement: IL-Ibeta and/or TNFalpha were quantified using a standardized ELISA, or similar technology. Concentrations of IL-1beta or TNFalpha were determined from standard curves of the appropriate cytokine and IC50 values for test compound (concentration that inhibited 50% of LPS-stimulated cytokine production) were calculated by linear regression analysis.
The test system of test [2] is TNF-stimulated IL8 production by human neutrophils. The experiment in a line: TNF-Stimulated IL-8 Production from Human Neutrophils. It counts as cell-based. Particulars: TNF 100 ng/ml, approximately 20 hrs, IL-8 by ELISA. Background: An ELISA detects its analyte on a solid surface through an enzyme-linked reagent.
Test [3] deals with IL-6, IL-8, GM-CSF, RANTES and COX-2. Particulars: a number of different cell types; cited from earlier work.
Test [4] deals with fibronectin and thrombospondin. The conditions noted are these: Laping et al., 2002; cited from earlier work.

Each structure is given as a SMILES string.

For `Cc1cc(F)ccc1-c1nc(NCCNC(N)=NC#N)nc2c1ccc(=O)n2-c1c(F)cccc1F` [Example 10], the “IC50 (concentration that inhibited 50% of LPS-stimulated cytokine production)” value in test [1] is recorded as “active”. Moreover, the “IC50, TNF-stimulated IL-8 production” value in test [2] is given as “active”. On to `C[S+]([O-])c1ccc(-c2nc(-c3ccncc3)c(-c3ccc(F)cc3)[nH]2)cc1` (centres unmarked) [SB-203580], for which the “decreasing the synthesis of pro-inflammatory proteins including IL-6, IL-8, GM-CSF, RANTES and COX-2” value in test [3] is “effective”. Take `COc1nccc(-c2c(-c3ccc(F)cc3)ncn2C2CCNCC2)n1` [SB-242235]: the “inhibition of TGF-β-induced increases in fibronectin and thrombospondin” value in test [4] is recorded as “inhibited”. In the case of `Fc1ccc(-c2nc3n(c2-c2ccncc2)CCS3)cc1` [SK&F 86002], the “decreasing the synthesis of pro-inflammatory proteins including IL-6, IL-8, GM-CSF, RANTES and COX-2” value in test [3] is “effective”.
